Data: US20230131899A1, “INHIBITORS OF MICROBIALLY INDUCED AMYLOID” (Axial Therapeutics, Inc., priority 2020, published 2023)
Like-named read-outs stand apart in the source and are kept apart here.

Columns and labels:
[1] = tested on: CsgA gene expression (csgBAC promoter-GFP reporter) in E. coli UTI89; test: In vitro live cell fluorescent reporter assay of CsgA transcription (Reporter Assay); assay type: cell-based; details: Escherichia coli
Method: In vitro live cell fluorescent reporter assay to determine effects of compounds on CsgA transcription. To assess the impact of compounds on CsgA gene expression, a live cell assay was performed using an engineered strain of E. coli UTI89 with a fluorescent CsgA gene expression reporter driven by the csgBAC promoter. In the reporter strain, a gene encoding Green Fluorescent Protein (GFP) was placed immediately downstream of the full intergenic region between csgDEF and csgBAC, containing the csgBAC promoter and other transcriptional regulatory elements, and inserted in single copy into the E. coli UTI89 chromosome, as described in Cegelski et. al., “Small-molecule inhibitors target Escherichia coli amyloid biogenesis and biofilm formation,” Nat. Chem. Bio., 25 Oct. 2009. With this construct, GFP expression in the reporter strain was under the same regulation as CsgA expression. The reporter strain was struck out on a YESCA agar plate (1 g/L yeast extract, 10 g/L casamino acids, 20 g/L Bacto Agar) and grown at about 27° C. for 2 days, or until single colonies were sufficiently large to pick. A single colony of the reporter strain was used to inoculate 5 mL of YESCA broth (1 g/L yeast extract, 10 g/L casamino acids), which was grown overnight at about 27° C. The inoculum was diluted 1:10 in YESCA broth and the optical density at 600 nm (OD600) was measured on a SpectraMax M2 or M5e (Molecular Devices, San Jose, Calif.) spectrophotometer in cuvettes. The culture was then further diluted to achieve a final OD600 of 0.003, which was confirmed by measurement of the OD600. Compounds were diluted in dimethyl sulfoxide (DMSO) and plated on black clear-bottomed tissue culture-treated 96-well plates with 1.5 μL/well for final test concentrations from 0.14-100 μM. All assay wells, including vehicle controls and positive controls for inhibition, included 1% DMSO final. Vehicle control wells consisted of DMSO and the reporter strain to assess the expression of the reporter strain in the assay in the absence of any compound. […] 148.5 μL culture at OD600 0.003 in YESCA broth was added to all wells for 150 μL final volume. Plates were incubated at 27° C. for 20 hours, then GFP fluorescence signal for each well was read on a Spectramax M2 or M5e plate reader with excitation at 485 nm, emission at 525 nm, and a cutoff at 515 nm. OD600 for each well was also measured on the Spectramax M2 or M5e plate reader. […] Background fluorescence was subtracted from all wells, then fluorescence signal for each well was normalized to the mean of the vehicle control wells. Normalized dose response curves were plotted for each compound, and compound inhibition of CsgA transcription was determined by assessing the curve-fit IC50, bottom, top, span (top-bottom), and Hill slope using GraphPad Prism software version 8.1.1 (GraphPad Software, San Diego, Calif.). An additional metric used to evaluate compounds was the concentration at which the curve reached 50% of the expression level of the vehicle control. This was written as a custom analysis in GraphPad Prism according to the formula X[50], or the X value at which Y=50, ie, the compound concentration at which fluorescence of the reporter strain was calculated to reach 50% of the vehicle control fluorescence. Separately from the fluorescence data, OD600 values were normalized to the mean of the vehicle control wells, and dose response curves were plotted for each compound. OD600 reduction of greater than 10% indicated compounds had some toxicity or negative impact on bacterial growth. […]

[2] = target: T1, E. coli CsgA (Escherichia coli, UniProt P28307); test: In vitro ThioflavinT assay of CsgA aggregation (CsgA ThT Assay); assay type: biochemical
T1 construct: made in house; host or cells: E. coli NEB 3016 slyD::kan, pET11d
T1 sequence (P28307 23-151): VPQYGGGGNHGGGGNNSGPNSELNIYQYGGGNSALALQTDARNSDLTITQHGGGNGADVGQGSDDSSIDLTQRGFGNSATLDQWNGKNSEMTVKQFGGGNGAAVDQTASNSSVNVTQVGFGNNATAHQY
Method: In vitro ThioflavinT assay to determine effects of compounds on CsgA aggregation. To assess the effects of compounds on aggregation of E. coli CsgA, a cell-free assay was performed using purified CsgA and Thioflavin T. In the assay, histidine-tagged CsgA was over-expressed in E. coli NEB 3016 slyD::kan cells harboring a pET11d vector containing a C-terminal 6× His tag. Following growth in rich media, CsgA production is induced at an OD600 of approximately 1.0 by addition of 0.5 mM IPTG (isopropyl beta-D-1-thiogalactopyranoside) followed by incubation at 37° C. for 1-4 hours with shaking at 200-250 rpm. Bacteria were resuspended in 8 M guanidine hydrochloride in 50 mM potassium phosphate buffer, pH 7.3 and lysed by sonication on ice using three 20 second intervals. The resulting lysate was incubated on a platform rocker for 1 hour at room temperature. After centrifugation at 10,000×g for 20 minutes, the supernatant was further sonicated on ice for three 20 second intervals and then incubated with nickel-nitrilotriacetic acid resin (Sigma) at room temperature for 1 hour in a 50 mL conical tube on a platform rocker. The resin was washed and pelleted 5 times with 45 mL 8 M guanidine in 50 mM potassium phosphate buffer pH 7.3. The resin was further washed and pelleted two times with 8 M guanidine hydrochloride in 50 mM potassium phosphate buffer pH 7.3 containing 12.5 mM imidazole. Purified CsgA protein was eluted two times with 5 mL of 6-8 M guanidine hydrochloride in 50 mM potassium phosphate buffer, pH 7.3 containing 250 mM imidazole. The eluted protein was aliquoted with 150 μL per aliquot, snap frozen in liquid nitrogen, and stored at −80 C. In order to obtain monomeric CsgA, the purified CsgA protein was thawed and passed through two pre-chilled desalting columns (Zeba) to remove imidazole and guanidine. The buffer exchanged protein was loaded onto a 30-kDa centrifugal filter unit (Amicon) and spun for 30 minutes at 7500×g to remove dimers and other oligomers. Protein concentration was assessed by the NanoDrop technique (Thermo Scientific), as is familiar to one skilled in the art. The CsgA aggregation assay was conducted in 96-well black non-binding surface or white untreated microplates with 20-40 μM ThioflavinT, 50 mM potassium phosphate buffer pH 7.3, 1% DMSO, CsgA at 2-20 μM, and compounds at 3.125-200 uM. The vehicle control wells contain all components of the assay except test compounds and represent the level of CsgA aggregation in the absence of any inhibitor or accelerator. Plates were incubated at room temperature in a Tecan Nano F200 plate reader with excitation at 438 nm using a 439 nm filter with a bandwidth of 8 nm, and emission at 495 nm with a 490 nm filter with a bandwidth of 10 nm, or in a SpectraMax M5, SpectraMax M2 or SpectraMax® i3X (Molecular Devices, San Jose, Calif.) spectrophotometer with excitation at 438 nm and emission at 495 nm. During the assay, plates were shaken initially for 5 seconds and subsequently for 3 seconds prior to fluorescent readings. Readings were performed every 15 minutes for up to 1005 minutes. The effect of compounds on CsgA aggregation in the assay was determined with data from 0-17 hours. Fluorescence values for each compound with CsgA were first adjusted by subtracting the average fluorescence of the compound in the absence of CsgA or in the presence of CsgA and compound at time 0 or 15 minutes. The data were analyzed in several ways:
1. The adjusted ThT fluorescence values were normalized by dividing them by the average fluorescence in the vehicle control wells containing CsgA. The median normalized fluorescence from 6-6.5 hours or 8-9 hours with the compound was expressed as a percentage of the median fluorescence observed in vehicle controls over the same time period. Percent inhibition of CsgA aggregation by a compound was determined by subtracting the percent average fluorescence with the compound relative to the vehicle controls from 100%. […]

[3] = read-out: Reporter Assay Abs IC50 (μM), median Abs IC50 in the CsgA reporter assay, N/A = maximum expression reduction is <50% of control
[4] = read-out: Reporter Assay Abs IC50 (activity range), median Abs IC50 in the CsgA reporter assay, class symbol
[5] = read-out: CsgA ThT Assay (10 μM CsgA) % Control AUC at 1005 minutes, 25 μM (activity range), CsgA 10 μM, black plates, compound 25 μM, 1005 minutes, class symbol
[6] = read-out: CsgA ThT Assay (10 μM CsgA) % Control AUC at 1005 minutes, 25 μM, mean AUC as % of DMSO control, CsgA 10 μM, black plates, compound 25 μM, 1005 minutes
[7] = read-out: CsgA ThT Assay (10 μM CsgA) % Control AUC at 1005 minutes, 100 μM (activity range), CsgA 10 μM, black plates, compound 100 μM, 1005 minutes, class symbol
[8] = read-out: CsgA ThT Assay (10 μM CsgA) % Control AUC at 1005 minutes, 100 μM, mean AUC as % of DMSO control, CsgA 10 μM, black plates, compound 100 μM, 1005 minutes

| Compound | IC50 [1, 3] | IC50 ([1]; read-out: Reporter Assay Abs IC50, activity range, class symbol) | remaining activity at 25 µM ([2]; read-out: CsgA ThT Assay (2 μM CsgA) % Control Bmax 25 μM, activity range, class symbol, CsgA 2 μM, white plates, compound 25 μM) | remaining activity at 25 µM ([2]; read-out: CsgA ThT Assay (2 μM CsgA) % Control Bmax 25 μM, mean Bmax as percentage of DMSO control, CsgA 2 μM, white plates, compound 25 μM) | remaining activity at 100 µM ([2]; read-out: CsgA ThT Assay (2 μM CsgA) % Control Bmax 100 μM, activity range, class symbol, CsgA 2 μM, white plates, compound 100 μM) | remaining activity at 100 µM ([2]; read-out: CsgA ThT Assay (2 μM CsgA) % Control Bmax 100 μM, mean Bmax as percentage of DMSO control, CsgA 2 μM, white plates, compound 100 μM) | IC50 [1, 4] | remaining activity at 25 µM [2, 5] | remaining activity at 25 µM [2, 6] | remaining activity at 100 µM [2, 7] | remaining activity at 100 µM [2, 8] | CsgA ThT Assay (10 μM CsgA) % Control AUC at 1005 minutes, 25 μM (activity range) ([2]; CsgA 10 μM, black plates, compound 25 μM, 1005 minutes, class symbol) | CsgA ThT Assay (10 μM CsgA) % Control AUC at 1005 minutes, 100 μM (activity range) ([2]; CsgA 10 μM, black plates, compound 100 μM, 1005 minutes, class symbol) | CsgA ThT Assay (10 μM CsgA) % Control AUC at 1005 minutes, 25 μM ([2]; mean AUC as % of DMSO control, CsgA 10 μM, black plates, compound 25 μM, 1005 minutes) | CsgA ThT Assay (10 μM CsgA) % Control AUC at 1005 minutes, 100 μM ([2]; mean AUC as % of DMSO control, CsgA 10 μM, black plates, compound 100 μM, 1005 minutes) |
| --- | --- | --- | --- | --- | --- | --- | --- | --- | --- | --- | --- | --- | --- | --- | --- |
| CCCN1CC(C(=O)O)n2c(cc(Cc3cccc4ccccc34)c(NC3CCCC3)c2=O)S1(=O)=O (stereo not drawn) [Compound 006, 7-(cyclopentylamino)-8-(naphthalen-1-ylmethyl)-6-oxo-2-propyl-3,4-dihydro-2H,6H-pyrido[1,2-e][1,2,5]thiadiazine-4-carboxylic acid 1,1-dioxide] | 70 µM | > 10 µM | > 60% | 66% | 31 to 60% | 34% |  |  |  |  |  |  |  |  |  |
| COC(=O)C1CSc2c(-c3cccc(C(F)(F)F)c3)c(Cc3cccc4ccccc34)cc(=O)n21 (stereo not drawn) [Compound 012, Methyl 7-(naphthalen-1-ylmethyl)-5-oxo-8-(3-(trifluoromethyl)phenyl)-2,3-dihydro-5H-thiazolo[3,2-a]pyridine-3-carboxylate] | 3.3 µM |  |  |  |  |  | 1.3 to 4.5 µM | > 60% | 108% | > 60% | 107% |  |  |  |  |
| O=C(O)C1CS(=O)(=O)c2c(-c3cccc(C(F)(F)F)c3)c(Cc3cccc4ccccc34)cc(=S)n21 (single isomer, unassigned) [Compound 014b, 7-(naphthalen-1-ylmethyl)-5-thioxo-8-(3-(trifluoromethyl)phenyl)-2,3-dihydro-5H-thiazolo[3,2-a]pyridine-3-carboxylic acid 1,1-dioxide] | 44 µM |  |  |  |  |  | > 10 µM |  |  |  |  | (+) (% control AUC of greater than 60%) | (+++) (% control AUC of 11 to 31%) | 71% | 26% |
| CN(C)Cc1c(Cc2cccc3ccccc23)c(-c2cccc(C(F)(F)F)c2)c2n(c1=O)C(C(=O)O)CS2(=O)=O (stereo not drawn) [Compound 083, 6-((dimethylamino)methyl)-7-(naphthalen-1-ylmethyl)-5-oxo-8-(3-(trifluoromethyl)phenyl)-2,3-dihydro-5H-thiazolo[3,2-a]pyridine-3-carboxylic acid 1,1-dioxide] | 14.6 µM |  |  |  |  |  | > 10 µM | > 60% | 102% | > 60% | 80% |  |  |  |  |
| Nc1c(Cc2cccc3ccccc23)c(-c2cccc(C(F)(F)F)c2)c2n(c1=O)C(C(=O)O)CN(CCO)S2(=O)=O (stereo not drawn) [Compound 098, 7-amino-2-(2-hydroxyethyl)-8-(naphthalen-1-ylmethyl)-6-oxo-9-(3-(trifluoromethyl)phenyl)-3,4-dihydro-2H,6H-pyrido[1,2-e][1,2,5]thiadiazine-4-carboxylic acid 1,1-dioxide] | 20.9 µM |  |  |  |  |  | > 10 µM | 31 to 60% | 60% | 31 to 60% | 33% |  |  |  |  |
| Nc1c(Cc2cccc3ccccc23)c(-c2cccc(C(F)(F)F)c2)c2n(c1=O)C(C(=O)O)CN(C[C@H](O)[C@@H](O)[C@H](O)[C@H](O)CO)S2(=O)=O (stereo partly drawn) [Compound 105, 7-amino-8-(naphthalen-1-ylmethyl)-6-oxo-2-((2S,3R,4R,5R)-2,3,4,5,6-pentahydroxyhexyl)-9-(3-(trifluoromethyl)phenyl)-3,4-dihydro-2H,6H-pyrido[1,2-e][1,2,5]thiadiazine-4-carboxylic acid 1,1-dioxide] | 36 µM |  |  |  |  |  | > 10 µM | > 60% | 102% | > 60% | 70% |  |  |  |  |
